Assay [1] deals with T1, human 5-HT6 receptor (Homo sapiens, UniProt P50406). The assay is described as follows: Effect of compounds on the cAMP response of human 5-HT6 receptors (stably transfected HEK293 cells, cAMP EIA). It counts as cell-based. Further details: expressed in transfected cells; host or cells: HEK293.
Experimental: The antagonist (or agonist ) property of compounds for human 5-HT6 receptors was determined by testing their effect on cAMP accumulation in stably transfected HEK293 cells.
Human 5-HT6 receptors were cloned and stably expressed in HEK293 cells. These cells were plated in 6 well plates in DMEM/F12 media with 10% fetal calf serum (FCS) and 500 μg/mL G418 and incubated at 37° C. in a CO2 incubator. The cells were allowed to grow to about 70% confluence before initiation of the experiment.
On the day of the experiment, the culture media was removed, and the cells were washed once with serum free medium (SFM). Two mL of SFM+IBMX media was added and incubated at 37° C. for 10 min. The media were removed and fresh SFM+IBMX media containing various compounds, and 1 μM serotonin (as antagonist) were added to the appropriate wells and incubated for 30 min. […]
cAMP content was determined by EIA (enzyme-immunoassay) using the Amersham Biotrak cAMP EIA kit (Amersham RPN 225). […] Briefly, cAMP is determined by the competition between unlabeled cAMP and a fixed quantity of peroxidase-labelled cAMP for the binding sites on anti-cAMP antibody. […] The reaction is stopped by the addition of 100 μL 1.0 M sulfuric acid and the resultant color read by a microtitre plate spectrophotometer at 450 nM within 30 minutes. […]
In assay [2] the target is T2, human 5-HT2c receptor (Homo sapiens, UniProt P28335).
T2 sequence (P28335 33-458): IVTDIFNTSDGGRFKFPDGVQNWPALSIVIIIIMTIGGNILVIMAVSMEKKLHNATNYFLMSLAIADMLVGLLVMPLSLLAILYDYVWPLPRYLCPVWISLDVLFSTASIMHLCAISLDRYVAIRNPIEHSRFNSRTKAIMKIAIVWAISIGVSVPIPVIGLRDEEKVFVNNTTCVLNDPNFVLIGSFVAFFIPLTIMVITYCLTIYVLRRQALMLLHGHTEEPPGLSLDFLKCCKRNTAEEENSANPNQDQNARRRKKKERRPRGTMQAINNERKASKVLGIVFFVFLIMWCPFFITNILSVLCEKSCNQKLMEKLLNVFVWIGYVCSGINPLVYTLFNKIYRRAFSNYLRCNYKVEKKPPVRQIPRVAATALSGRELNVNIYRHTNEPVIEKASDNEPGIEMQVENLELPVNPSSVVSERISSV
The assay is described as follows: Selectivity of binding to the human 5-HT6 receptor relative to the human 5-HT2c receptor. The settings on record: 5-HT6 vs 5-HT2c. As to the method: (§1) All of the compounds of the invention were evaluated using cell types receptive specifically to the 5-HT6 receptor (for cloning and characterization of the human 5-HT6 receptor see Kohen, et al. J. Neurochemistry, 66, 1996: 47-56). […] After a 60 minute incubation at 37° C., the incubation was terminated by vacuum filtration. The filters were washed with buffer and the filters were counted for radioactivity using liquid scintillation spectrometry. The affinity of the test compound for the 5-HT6 receptor was determined by computer-assisted analysis of the data and determining the amount of the compound necessary to inhibit 50% of the binding of the radioligand to the receptor. Concentrations ranging from 10^-11 M to 10^-5 M of the test compound were evaluated.

For assay [3], the target named is human 5-HT7 receptor (Homo sapiens, UniProt P34969). The experiment in a line: Selectivity of binding to the human 5-HT6 receptor relative to the human 5-HT7 receptor. The settings on record: 5-HT6 vs 5-HT7.
The target in assay [4] is T1, human 5-HT6 receptor. The experiment in a line: Binding affinity for the 5-HT6 receptor (3H-LSD radioligand binding, membranes of cells expressing the receptor). The settings on record: 60 minute incubation at 37° C. Details: expressed in transfected cells. As to the method:
as §1

Structures can show the parent of a compound that is named as a salt. Where two headings read alike, the source gives them in different places. Where only a bound is given, the exact number is not on record here.

These results are taken from patent US6133287A, “Piperidine-indole compounds having 5-HT6 affinity” (Allelix Biopharmaceuticals Inc., priority 1998, dated 2000).

T1 sequence (P50406 whole entry): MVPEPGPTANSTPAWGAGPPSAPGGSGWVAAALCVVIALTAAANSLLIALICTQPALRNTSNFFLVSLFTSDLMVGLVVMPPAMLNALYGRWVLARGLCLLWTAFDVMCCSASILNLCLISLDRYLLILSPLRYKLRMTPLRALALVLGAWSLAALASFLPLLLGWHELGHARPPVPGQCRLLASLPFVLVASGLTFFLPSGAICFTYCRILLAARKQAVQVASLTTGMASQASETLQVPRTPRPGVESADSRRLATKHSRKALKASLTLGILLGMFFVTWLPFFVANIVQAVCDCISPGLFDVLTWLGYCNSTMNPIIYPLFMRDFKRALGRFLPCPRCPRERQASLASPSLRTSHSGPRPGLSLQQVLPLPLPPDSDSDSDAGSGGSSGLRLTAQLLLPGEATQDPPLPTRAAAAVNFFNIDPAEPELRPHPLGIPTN
Chain of human 5-HT7 receptor (P34969 whole entry): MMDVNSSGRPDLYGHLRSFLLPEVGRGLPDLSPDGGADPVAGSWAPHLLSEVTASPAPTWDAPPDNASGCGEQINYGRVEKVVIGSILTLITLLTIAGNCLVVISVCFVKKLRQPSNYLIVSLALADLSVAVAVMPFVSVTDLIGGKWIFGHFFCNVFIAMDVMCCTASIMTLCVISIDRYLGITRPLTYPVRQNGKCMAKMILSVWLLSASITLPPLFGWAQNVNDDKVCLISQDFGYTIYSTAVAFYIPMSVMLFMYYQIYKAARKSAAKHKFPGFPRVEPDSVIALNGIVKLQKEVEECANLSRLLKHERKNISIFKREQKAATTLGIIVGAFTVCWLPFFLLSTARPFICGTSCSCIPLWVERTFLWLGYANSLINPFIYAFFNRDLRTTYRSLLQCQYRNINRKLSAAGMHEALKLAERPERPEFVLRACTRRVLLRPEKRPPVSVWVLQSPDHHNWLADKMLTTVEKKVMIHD

`CN1CC=C(c2cn(S(=O)(=O)c3ccc(F)cc3)c3ccc(F)cc23)CC1` [6 cc]: in assay [1] (read-out: EC50, concentration causing 50% inhibition of the serotonin-stimulated cAMP response, 1 μM serotonin, 30 min), the EC50 was found to be 10 nM.
Regarding `CN1CCC(c2c[nH]c3cc(Cl)ccc23)CC1` [Example 5b, 6-Chloro-3-(1-methyl-4-piperidinyl)-1H-indole], the EC50 in assay [1] (1 μM serotonin, 30 min, read-out: EC50, concentration causing 50% inhibition of the serotonin-stimulated cAMP response) turned out to be 1900 nM.
On to `Cc1ccc(S(=O)(=O)n2cc(C3=CCN(C)CC3)c3cc(F)ccc32)cc1` [Example 6b, 5-Fluoro-1-(4-methylphenylsulfonyl)-3-(1-methyl-1,2,3,6-tetrahydro-4-pyridinyl)indole], for which the “greater affinity for human 5-HT6 receptor relative to human 5-HT2c receptor” value in assay [2] is on record as at least 60 fold. Further, in assay [3], the “greater affinity for human 5-HT6 receptor relative to human 5-HT7 receptor” value is on record as at least 60 fold.
With `CN1CC=C(c2cn(C(=O)c3ccccc3Cl)c3ccc(F)cc23)CC1` [Example 6c, 1-(2-Chlorobenzoyl)-5-fluoro-3-(1-methyl-1,2,3,6-tetrahydro-4-pyridinyl)indole], the Ki in assay [4] (Ki) was at most 5 nM.
In assay [4] (Ki), `CN1CC=C(c2cn(C(=O)c3c(Cl)cccc3Cl)c3ccc(F)cc23)CC1` [Example 6f, 1-(2,6-Dichlorobenzoyl)-5-fluoro-3-(1-methyl-1,2,3,6-tetrahydro-4-pyridinyl)indole] came in with a Ki of at most 5 nM.
`CN1CC=C(c2cn(C(=O)c3ccccc3)c3ccc(Br)cc23)CC1` [Example 6g, 1-Benzoyl-5-bromo-3-(1-methyl-1,2,3,6-tetrahydro-4-pyridinyl)indole]: the “greater affinity for human 5-HT6 receptor relative to human 5-HT2c receptor” value in assay [2] is on record as at least 60 fold. The “greater affinity for human 5-HT6 receptor relative to human 5-HT7 receptor” value in assay [3] is given as at least 60 fold. In addition, the inhibition constant (Ki) in assay [4] (Ki) was at most 50 nM.
Turning to `CN1CC=C(c2cn(C(=O)c3ccccc3Cl)c3ccc(OC4CCCCC4)cc23)CC1` [Example 7aaa, 1-(2-Chlorobenzoyl)-5-cyclohexyloxy-3-(1-methyl-1,2,3,6-tetrahydro-4-pyridinyl) indole], in assay [4] (Ki), the Ki was at most 5 nM.
On to `CN1CC=C(c2cn(S(=O)(=O)c3ccccc3)c3c(F)cc(F)cc23)CC1` [Example 7aj, 5,7-Difluoro-3-(1-methyl-1,2,3,6-tetrahydro-4-pyridinyl)-1-phenylsulfonylindole], for which, in assay [4] (Ki), the inhibitory constant (Ki) is at most 5 nM.
Consider `CN1CC=C(c2cn(S(=O)(=O)c3ccc(Br)cc3)c3c(F)cc(F)cc23)CC1` [Example 7am, 1-(4-Bromophenylsulfonyl)-5,7-difluoro-3-(1-methyl-1,2,3,6-tetrahydro-4-pyridinyl)indole], for which, in assay [4] (Ki), the Ki is at most 5 nM.
In turn, `CN1CC=C(c2cn(S(=O)(=O)c3ccc4ccccc4c3)c3c(F)cc(F)cc23)CC1` [Example 7ap, 5,7-Difluoro-3-(1-methyl-1,2,3,6-tetrahydro-4-pyridinyl)-1-(2-naphthylsulfonyl)indole] gave a Ki in assay [4] (Ki) of at most 5 nM.
As to `CN1CC=C(c2cn(C(=O)c3ccc(F)cc3)c3c(F)cc(F)cc23)CC1` [Example 7ar, 5,7-Difluoro-1-(4-fluorobenzoyl)-3-(1-methyl-1,2,3,6-tetrahydro-4-pyridinyl)indole], the inhibition constant (Ki) in assay [4] (Ki) was at most 5 nM.
The same measure, in the same setting: as for `CN1CC=C(c2cn(C(=O)c3cc(Cl)ccc3Cl)c3c(F)cc(F)cc23)CC1` [Example 7as, 1-(2,5-Dichlorobenzoyl)-5,7-difluoro-3-(1-methyl-1,2,3,6-tetrahydro-4-pyridinyl)indole], the figure is at most 50 nM.
With `CN1CC=C(c2cn(S(=O)(=O)c3ccccc3Br)c3ccc(F)cc23)CC1` [Example 7bb, 1-(2-Bromophenylsulfonyl)-5-fluoro-3-(1-methyl-1,2,3,6-tetrahydro-4-pyridinyl)indole], the “greater affinity for human 5-HT6 receptor relative to human 5-HT2c receptor” value in assay [2] is at least 60 fold. The “greater affinity for human 5-HT6 receptor relative to human 5-HT7 receptor” value in assay [3] is listed as at least 60 fold.
Regarding `CN1CC=C(c2cn(S(=O)(=O)c3ccc(F)cc3)c3ccc(F)cc23)CC1` [Example 7cc, 1-(4-Fluorophenylsulfonyl)-5-fluoro-3-(1-methyl-1,2,3,6-tetrahydro-4-pyridinyl)indole], the Ki in assay [4] (Ki) is at most 5 nM.
For the compound `CN1CC=C(c2cn(S(=O)(=O)c3ccc(Cl)cc3)c3ccc(F)cc23)CC1` [Example 7dd, 1-(4-Chlorophenylsulfonyl)-5-fluoro-3-(1-methyl-1,2,3,6-tetrahydro-4-pyridinyl)indole], in assay [2], the “greater affinity for human 5-HT6 receptor relative to human 5-HT2c receptor” value is on record as at least 60 fold. Moreover, the “greater affinity for human 5-HT6 receptor relative to human 5-HT7 receptor” value in assay [3] is reported as at least 60 fold.
In the case of `CN1CC=C(c2cn(S(=O)(=O)c3cccc4ccccc34)c3ccc(F)cc23)CC1` [Example 7gg, 5-Fluoro-3-(1-methyl-1,2,3,6-tetrahydro-4-pyridinyl)-1-(1-naphthylsulfonyl)indole], in assay [4] (Ki), the inhibition constant (Ki) is at most 50 nM.
`CN1CC=C(c2cn(S(=O)(=O)c3ccc4ccccc4c3)c3ccc(F)cc23)CC1` [Example 7hh, 5-Fluoro-3-(1-methyl-1,2,3,6-tetrahydro-4-pyridinyl)-1-(2-naphthylsulfonyl)indole]: the “greater affinity for human 5-HT6 receptor relative to human 5-HT2c receptor” value in assay [2] is reported as at least 60 fold. Also, the “greater affinity for human 5-HT6 receptor relative to human 5-HT7 receptor” value in assay [3] is reported as at least 60 fold.
As to `Cc1ccc(S(=O)(=O)n2cc(C3=CCN(C)CC3)c3cc(OC4CCCCC4)ccc32)cc1` [Example 7i, 5-Cyclohexyloxy-1-(4-methylphenylsulfonyl)-3-(1-methyl-1,2,3,6-tetrahydro-4-pyridinyl)indole], the “greater affinity for human 5-HT6 receptor relative to human 5-HT2c receptor” value in assay [2] was at least 60 fold. Also, in assay [3], the “greater affinity for human 5-HT6 receptor relative to human 5-HT7 receptor” value was at least 60 fold.
`CN1CC=C(c2cn(S(=O)(=O)c3ccccc3)c3ccc(F)cc23)CC1` [Example 7ii, 5-Fluoro-3-(1-methyl-1,2,3,6-tetrahydro-4-pyridinyl)-1-phenylsulfonylindole]: the Ki in assay [4] (Ki) is at most 5 nM.
`CN1CC=C(c2cn(S(=O)(=O)c3ccccc3)c3cc(Br)ccc23)CC1` [Example 7j, 6-Bromo-3-(1-methyl-1,2,3,6-tetrahydro-4-pyridinyl)-1-phenylsulfonylindole] came in with a Ki in assay [4] (Ki) of at most 50 nM.
In assay [4] (Ki), `CN1CC=C(c2cn(S(=O)(=O)c3ccccc3)c3ccc(Cl)cc23)CC1` [Example 7jj, 5-Chloro-3-(1-methyl-1,2,3,6-tetrahydro-4-pyridinyl)-1-phenylsulfonylindole] displayed a Ki of at most 5 nM.
Turning to `CN1CC=C(c2cn(C(=O)c3ccccc3)c3ccc(Cl)cc23)CC1` [Example 7jjj, 1-Benzoyl-5-chloro-3-(1-methyl-1,2,3,6-tetrahydro-4-pyridinyl)indole hydrochloride], the inhibitory constant (Ki) in assay [4] (Ki) was at most 50 nM.
`CN1CC=C(c2cn(S(=O)(=O)c3ccccc3)c3ccc(OC4CCCCC4)cc23)CC1` [Example 7m, 5-Cyclohexyloxy-3-(1-methyl-1,2,3,6-tetrahydro-4-pyridinyl)-1-phenylsulfonylindole]: in assay [4] (Ki), the Ki is at most 50 nM.
On to `CN1CC=C(c2cn(C(=O)c3c(Cl)cccc3Cl)c3ccc(C(F)(F)F)cc23)CC1` [Example 7qqq, 1-(2,6-Dichlorobenzoyl)-3-(1-methyl-1,2,3,6-tetrahydro-4-pyridinyl)-5-trifluoromethyl-indole], for which, in assay [4] (Ki), the Ki was at most 50 nM.
The compound `CN1CC=C(c2cn(S(=O)(=O)c3ccccc3)c3ccc(C(F)(F)F)cc23)CC1` [Example 7rr, 3-(1-Methyl-1,2,3,6-tetrahydro-4-pyridinyl)-1-phenylsulfonyl-5-trifluoromethylindole hydrochloride] displayed a Ki in assay [4] (Ki) of at most 5 nM.
As to `CN1CCC(c2cn(S(=O)(=O)c3ccccc3)c3ccccc23)CC1` [Example 7uuu, 3-(1-Methyl-4-piperidinyl)-1-phenylsulfonylindole], the inhibitory constant (Ki) in assay [4] (read-out: Ki) was at most 50 nM.
Regarding `COc1ccc(S(=O)(=O)n2cc(C3=CCN(C)CC3)c3cc(C(F)(F)F)ccc32)cc1` [Example 7vv, 1-(4-Methoxyphenylsulfonyl)-3-(1-methyl-1,2,3,6-tetrahydro-4-pyridinyl)-5-trifluoromethylindole hydrochloride], the Ki in assay [4] (Ki) was at most 50 nM.

As a reminder, the Ki is a dissociation constant, usually derived from enzyme kinetics or from competition with a known ligand.
